Measurements as given in patent US6395745B1, “Alkaloid halide salts of swainsonine and methods of use” (priority 1997, dated 2002).
≈ marks a conversion by molar mass, not a printed value. Structures can show the parent of a compound that is named as a salt.

Experiments:
[1] = Accelerated stability of stressed solid samples, percentage remaining by HPLC; type: physicochemical; conditions: for percentage remaining, condition (e): 40° C. with 75% relative humidity for seven days; for percentage remaining, condition (d): 70° C. with low humidity for seven days; for percentage remaining, condition (c): 105° C. under nitrogen for seven days (*=average of two samples); for percentage remaining, condition (b): 105° C. with atmospheric oxygen for seven days (*=average of two samples); for percentage remaining, condition (a): UV light for 7 days
From the text: Samples of swainsonine free base synthesized using synthetic routes developed by Dr. David Dime (Toronto Research Chemicals, Toronto, Ontario) and Dr. William Pearson (University of Michigan, Ann Arbor, Mich.), were recrystallized to obtain either the hydrochloride salt, the hydrobromide salt or the free base of swainsonine. Samples were weighed and exposed to the conditions described below.
To model long-term stability or shelf life, various conditions were used to accelerate the decomposition process. Samples of crystalline prism swainsonine hydrochloride salt and swainsonine free base (a white, fluffy powder obtained from swainsonine hydrochloride were recrystallized from chloroform-methanol-diethyl ether) were weighed and exposed to conditions described below (stressed samples). Unstressed samples were prepared at 1 mg/ml concentration and chromatographed in sextuplicate on each run. After the indicated time interval each stressed sample was diluted with mobile phase at the same concentration as the unstressed sample. The percentage remaining swainsonine hydrochloride or swainsonine free base was calculated based on the percentage of either the hydrochloride or the free base in the unstressed sample.
The conditions included (a) UV light for 7 days; (b) 105° C. with atmospheric oxygen for seven days (*=average of two samples); (c) 105° C. under nitrogen for seven days (*=average of two samples); (d) 70° C. with low humidity for seven days; and (e) 40° C. with 75% relative humidity for seven days. Other tests include (f) UV for 24 hours; (g) 100° C. aqueous solution for two hours; (h) aqueous acidic treatment for 24 hours; (i) aqueous alkali treatment for 4 hours; and (j) (aqueous) 3% hydrogen peroxide for 4 hours. […] The physical properties of swainsonine hydrochloride compared to the free base and swainsonine hydrobromide, and swainsonine hydrofluoride are shown in Table 5.

[2] = Solubility in distilled water at room temperature; type: physicochemical; conditions: distilled water, water
Procedure: The melting point of the clear swainsonine hydrochloride crystal (prism) was 190-191° C. The solubility of swainsonine hydrochloride in distilled water at room temperature was about 3 g/ml, in contrast to the solubility of swainsonine free base, which is about 0.8 g/ml (see Table 5).

[3] = tested on: early erythroid progenitor cells (CFU-E); test: Murine bone marrow progenitor cell assay in methylcellulose, CFU-E; type: cell-based, C57BL/6 mice
Procedure: Pathogen-free C57BL/6 female mice, 8-9 weeks old, obtained from Jackson Laboratories were used. The room environment and photoperiod were controlled: 24° C.; humidity, 50±20%; 12 hr light and 12 hr dark. Mice were housed one per cage with ad libitum accesses to standard pelleted commercial laboratory diet and to sterile (autoclaved) tap water.
Swainsonine hydrochloride was manufactured by Seres Laboratories, Calif. FBS and methylcellulose (MethoCult M3330) were purchased from Stem Cell Technologies, Inc. (Vancouver. BC). Iscove's modified Dulbecco's medium was prepared using powdered media from Gibco BRL, deionized water and filter sterilization. For the handling of cells, the media was supplemented with 2% FBS and 50 μM β-mercaptoethanol (referred to as IMDM/FBS).
(§1) The healthy and GD0039 treated mice were euthanized by CO2 asphyxiation. Bone marrow (BM) cell suspensions were prepared under sterile conditions by flushing both femurs and tibiae with IMDM/FBS using a 26 gauge needle. Single cell suspensions were made up to 10.0 ml IMDM/FBS. The concentration of nucleated cells in each suspension was determined by triplicate counts on a hemocytometer. A portion of the cells was further diluted in media to the appropriate concentration before plating for the progenitor assay.
Colony-forming units (CFUs) were estimated by the methylcellulose method. One milliliter suspensions, containing 2×10^5 nucleated BM cells, in 0.1 ml of IMDM and 0.9 ml MethoCult (M3330), were plated in triplicate in 35 mm tissue culture dishes. […] The MethoCult M3330 contains 30% FBS and 10 μg/ml erythropoietin and is designed for the growth of early erythroid progenitor cells (CFU-E), which were scored after 3 days of incubation at 37° C. in a humidified atmosphere containing 5% CO2. […] Colonies containing more than 20 cells were scored using an inverted microscope with brightfield optics and 40× or 100× magnification.

[4] = tested on: granulocyte-macrophage progenitor cells (CFU-GM); test: Murine bone marrow progenitor cell assay in methylcellulose, CFU-GM; type: cell-based, C57BL/6 mouse; conditions: FIG. 11
Procedure: as §1
Colony-forming units (CFUs) were estimated by the methylcellulose method. One milliliter suspensions, containing 2×10^5 nucleated BM cells, in 0.1 ml of IMDM and 0.9 ml MethoCult (M3330), were plated in triplicate in 35 mm tissue culture dishes. Swainsonine hydrochloride or swainsonine were added to certain plates, in 0.1 ml of IMDM at concentrations of 30 μg/ml and 3 μg/ml, which gave final concentrations of […]. The MethoCult M3330 contains 30% FBS and 10 μg/ml erythropoietin and is designed for the growth of early erythroid progenitor cells (CFU-E), which were scored after 3 days of incubation at 37° C. in a humidified atmosphere containing 5% CO2. […] Colonies containing more than 20 cells were scored using an inverted microscope with brightfield optics and 40× or 100× magnification. […]

murine tumor cells = conditions: organ-colonization and spontaneous metastasis assays; cited from earlier work
tumor cell invasion = conditions: in vitro; cited from earlier work
human MeWo melanoma = conditions: orally or by mini-osmotic pumps; cited from earlier work
HT29m colon carcinoma = conditions: orally or by mini-osmotic pumps; cited from earlier work
NK cell = conditions: cited from earlier work
LAK cell = conditions: cited from earlier work
[5] = tested on: splenic and bone marrow (BM) cell; conditions: cited from earlier work
[6] = mouse, in vivo; cited from earlier work
[7] = mouse, in vivo; cited from earlier work; remark: listed apart in the source

## O[C@H]1[C@H]2[C@H](O)CCCN2C[C@H]1O [swainsonine hydrobromide, Swainsonine hydrobromide salt]
[1]; hydrobromide salt
  percentage remaining, condition (e): 91.4%
  percentage remaining, condition (d): 95.5%
  percentage remaining, condition (c): 92.1%
  percentage remaining, condition (b): 88.3%
  percentage remaining, condition (a): 71.1%

## O[C@H]1[C@H]2[C@H](O)CCCN2C[C@H]1O [swainsonine]
[2]; Table 5
  solubility: 800 mg/mL (≈ 4620 mM)
[2]; room temperature
  solubility: ~800 mg/mL (≈ 4620 mM)
[1]; listed as SW
  percentage remaining, condition (e): 102.5%
  percentage remaining, condition (d): 98.5%
  percentage remaining, condition (c): 9.7%*
  percentage remaining, condition (b): 20.0%*
  percentage remaining, condition (a): 99.3%
[3]; 0.03 μg/ml to 10 μg/ml in vitro
  increase in the number of early CFU-E: ~3 fold
[3]; added to methylcellulose in vitro
  number of early CFU-E, counted on day 3: significantly increased
[3]; mouse 1 (control), 0.3 μg/ml in vitro, in vitro control 54 ± 12
  mean CFU-E of triplicate counts ± SD from 2 × 10^5 nucleated BM cells: 108 ± 21
[3]; mouse 1 (control), 3 μg/ml in vitro, in vitro control 54 ± 12
  mean CFU-E of triplicate counts ± SD from 2 × 10^5 nucleated BM cells: 101 ± 12
[3]; mouse 2 (GD0039 treated in vivo, 20 μg/day for four days), 0.3 μg/ml in vitro
  mean CFU-E of triplicate counts ± SD from 2 × 10^5 nucleated BM cells: 71 ± 15
[3]; mouse 2 (GD0039 treated in vivo, 20 μg/day for four days), 3 μg/ml in vitro
  mean CFU-E of triplicate counts ± SD from 2 × 10^5 nucleated BM cells: 103 ± 1
[4]
  effect on granulocyte-macrophage progenitor cells in vitro: stimulate
Murine tumor cells
  metastatic potential of treated murine tumor cells: less metastatic
Tumor cell invasion
  tumor cell invasion through extracellular matrix: block tumor cell invasion
Human MeWo melanoma
  growth rate of tumor xenografts: inhibited the growth rate
HT29m colon carcinoma
  growth rate of tumor xenografts: inhibited the growth rate
NK cell
  NK cell activity: increase
LAK cell
  LAK cell activity: increase
[5]
  splenic and bone marrow (BM) cell proliferation: increase
[6]
  lethality of various chemotherapeutic agents: protect against the lethality
[7]
  lethal doses of irradiation: protect
